“And” between values parts separate entries of the source, which are not always exact repeats. Equal entries are not always repeated.
Legend:
[1] = test system: healthy adults; assay: Low intake test (12 weeks, 1 bottle per day) in healthy adults; type: in vivo, human; details: for change in serum iron level: low intake test
Experimental: Subjects (39 healthy adults: 20 to 65 years of age, 13 men, premenopausal women, and 13 postmenopausal women) ingested 1 bottle of a test beverage per day for 12 weeks. The test beverage contains 600 mg of phytic acid per bottle (50 mL). Before and 4 weeks, 8 weeks, 12 weeks, and 14 weeks (i.e. 2 weeks after the last intake) after the start of the intake, blood of fasting was collected. The collected blood was measured for each test item by an analysis contractor. Tests for each endpoint compared to 0 week were performed with a paired t-test. Two-sided test was performed with a significance level of 5%.

[2] = target: T1, Phosphatase, Alkaline, Calf Intestine (Bos taurus, UniProt P19111); assay: Alkaline phosphatase inhibition (IMP to inosine); type: biochemical; details: sample solution 10 mg/mL, pH 6.2 to 6.4, 37° C. 30 minutes
T1 construct: purchased Merck
Experimental: Phosphatase, Alkaline, Calf Intestine (Merck) dissolved in the assay buffer (2.37% aqueous solution of Trizma® maleate (Sigma-Aldrich)) at 5.0 U/mL was used as the enzyme solution.
Inosine monophosphate (IMP) (Sigma-Aldrich) dissolved in the assay buffer at 9 mM was used as the substrate solution.
Phytic acid and the assay buffer were mixed, and the pH was adjusted to 6.2 to 6.4 with sodium hydroxide to obtain a sample solution (10 mg/mL). The control solution was prepared by adjusting the assay buffer to pH 6.2 to 6.4 with sodium hydroxide.
(§1) Enzymatic reaction was performed using a 96 well plate (Thermo Fisher Scientific) in the following manner.
The sample solution or control solution (100 μL/well), the substrate solution (100 μL/well), and the enzyme solution (100 μL/well) were added, and the enzyme reaction was performed at 37° C. for 30 minutes. A 20 μL aliquot of the reaction solution was transferred to multi-screen FITS HV (Merck Millipore), and the reaction was stopped by adding the stop solution (0.33 M HClO4, 180 μl/well). Centrifuge (1080×g for 10 minutes at room temperature) was performed, and the filtrate was subjected to high performance liquid chromatography (HPLC) to determine the amounts of inosine monophosphate and inosine.
The analytical conditions of HPLC are shown below.
Detector: SPD-M 30 A (Shimadzu Corporation) […]

[3] = test system: alkaline phosphatase and 5′nucleotidase (rat small intestine powder); assay: Purine nucleotide metabolism inhibition (IMP to inosine) using rat small intestine powder; type: biochemical; details: pH 6.2 to 6.4, 37° C. 30 minutes
Experimental: The rat small intestine powder contains alkaline phosphatase and 5′nucleotidase as the main digestive enzymes. The inhibition of metabolism of purine nucleotides to purine nucleosides by phytic acid was investigated.
A 100 mg/mL of solution of rat small intestine powder (Clare Japan, Inc.) in the assay buffer (2.37% aqueous solution of Trizma® maleate (Sigma-Aldrich)) was used as the enzyme solution. Inosine monophosphate (IMP) (Sigma-Aldrich) (9 mM) in the assay buffer was used as the substrate solution.
Phytic acid and the assay buffer were mixed, and the pH was adjusted to 6.2 to 6.4 with sodium hydroxide to obtain the sample solutions of each concentration. The control solution was prepared by adjusting the assay buffer to pH 6.2 to 6.4 with sodium hydroxide.
as §1
The sample solution or control solution (100 μL/well), the substrate solution (100 μL/well), and the enzyme solution (100 μL/well) were added, and the enzyme reaction was performed at 37° C. for 30 minutes. A 20 μL aliquot of the reaction solution was transferred to multi-screen HTS HV (Merck Millipore), and the reaction was stopped by adding the stop solution (0.33 M HClO4, 180 μL/well). […]

[4] = target: xanthine oxidase; details: Non-Patent Document 4, cited from earlier work
[5] = test system: healthy adults; assay: High intake test (5 weeks, 3 to 5 bottles per day) in healthy adults; type: in vivo, human; details: for change in serum iron level: high intake test
Experimental: The subjects (48 healthy adults: 20 to 65 years of age, 16 men, 16 premenopausal women, and 16 postmenopausal women) ingested 5 bottles per day (or 3 to 5 bottles per day depending on the subject's capacity) of test beverage. The test beverage contains 600 mg of phytic acid per bottle (50 mL). The duration of intake was 5 weeks. The first week being a time period to determine each subject's tolerable volume of test beverage, during which time the subjects ingested test beverages while increasing one bottle daily (Up to 5 bottles per day). If 5 bottles/day could not be taken due to taste, volume, etc., the intake volume was determined by each subject, and the intake volume on day 7 was taken as the tolerable volume for each subject, and each subject ingested this tolerable volume (3 to 5 bottles per day) during the remaining study period (4 weeks). Before and 3 weeks, 5 weeks, and 7 weeks (i.e. 2 weeks after the last intake) after the start of the intake, blood pressure of fasting was measured and blood of fasting was collected. The collected blood was measured for each test item by an analysis contractor. Tests for blood pressure, blood glucose, AST, and serum iron compared to 0 week were performed with a paired t-test, and tests for 1, 25-(OH)2-D compared to 0 week were performed with one-way ANOVA followed by Dunnet's multiple comparison method. A two-sided test was performed with a significance level of 5%. The analysis included 44 subjects excluding 2 subjects who withdrew their consent and 2 subjects who were unable to take more than 3 bottles of the test beverage.

[6] = ingestion of 1,400 mg of sodium phytate (1,000 mg as phytic acid); cited from earlier work

T1 sequence (P19111 20-506): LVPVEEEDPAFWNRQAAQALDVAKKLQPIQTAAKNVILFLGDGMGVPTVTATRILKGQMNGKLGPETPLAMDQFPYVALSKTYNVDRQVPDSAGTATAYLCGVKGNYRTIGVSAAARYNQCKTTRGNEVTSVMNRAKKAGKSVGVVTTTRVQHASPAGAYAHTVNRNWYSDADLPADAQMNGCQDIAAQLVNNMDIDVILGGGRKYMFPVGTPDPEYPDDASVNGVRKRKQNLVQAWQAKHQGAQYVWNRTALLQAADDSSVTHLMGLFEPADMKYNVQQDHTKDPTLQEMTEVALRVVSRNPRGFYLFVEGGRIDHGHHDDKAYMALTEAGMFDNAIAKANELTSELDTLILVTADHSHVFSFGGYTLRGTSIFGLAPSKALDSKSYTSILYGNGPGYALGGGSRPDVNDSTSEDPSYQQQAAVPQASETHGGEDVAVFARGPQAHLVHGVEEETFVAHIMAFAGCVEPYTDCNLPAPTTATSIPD

O=P(O)(O)O[C@H]1[C@H](OP(=O)(O)O)[C@@H](OP(=O)(O)O)[C@H](OP(=O)(O)O)[C@@H](OP(=O)(O)O)[C@H]1OP(=O)(O)O [phytic acid]
change in HbA1c level ([1]; high HbA1c level group (5.5 or more at 0 week)): significant decrease | change in blood glucose level ([1]; high blood glucose level group (86 or more at 0 week)): significant decrease | change in serum iron level ([1]; high level group (132 or more at 0 week)): significant decreases | change in serum iron level ([1]; low level group (90 or less at 0 week)): significant rises | change in serum iron level ([1]; middle level group (90 to 132 at 0 week)): no large changes | inhibition of metabolism of inosine monophosphate to inosine by alkaline phosphatase [2]: inhibits the conversion of purine nucleotides into purine nucleosides | inhibition of metabolism of inosine monophosphate to inosine [3]: inhibits the conversion of purine nucleotides into purine nucleosides | IC50 of inhibition of xanthine oxidase activity (conversion of xanthine to uric acid) [4]: ~19.8 mg/mL | IC50 ([4]; read-out: IC50 of inhibition of xanthine oxidase activity (conversion of xanthine to uric acid)): ~30 mM | change in 1,25-(OH)2-D level ([5]; 5 weeks after ingestion compared with before ingestion): significant increase | change in diastolic blood pressure ([5]; high diastolic blood pressure group (86.3 or more at 0 week)): significant decrease | change in serum iron level ([5]; high level group (117 or more at 0 week)): significant decreases | change in serum iron level ([5]; low level group (79 or less at 0 week)): significant rises | change in serum iron level ([5]; middle level group (79 to 117 at 0 week)): no large changes | change in AST level ([5]; high level group (21 or more at 0 week), 3, 5, and 7 weeks compared with before ingestion): significant decreases | change in systolic blood pressure ([5]; high systolic blood pressure group (126 or more at 0 week)): significant decrease | change in diastolic blood pressure ([5]; low diastolic blood pressure group (73.8 or less at 0 week)): no change | change in AST level ([5]; low level group (17 or less at 0 week), 3 weeks compared with before ingestion, change not large): significant increase | change in systolic blood pressure ([5]; low systolic blood pressure group (115.5 or less at 0 week)): no change | change in diastolic blood pressure ([5]; middle diastolic blood pressure group (73.8 to 86.3 at 0 week)): no change | change in systolic blood pressure ([5]; middle systolic blood pressure group (115.5 to 126 at 0 week)): significant change but it was not large

O=P([O-])([O-])O[C@H]1[C@H](OP(=O)([O-])O)[C@H](OP(=O)([O-])[O-])[C@H](OP(=O)([O-])O)[C@@H](OP(=O)([O-])[O-])[C@@H]1OP(=O)([O-])O.[Na+].[Na+].[Na+].[Na+].[Na+].[Na+].[Na+].[Na+].[Na+] [sodium phytate]
blood phytic acid concentration at the maximum [6]: 0.12 mg/L and 0.181 μM
